Reference: patent US6596718B1, “7-Morpholin-4yl-benzothiazole amide derivatives” (Hoffmann-La Roche Inc., priority 2001, dated 2003)

Structure (SMILES) | melting point [°C]
COc1ccc(N2CCOCC2)c2sc(C(=O)NC3CCCC3)nc12 [Example 8, 4-Methoxy-7-morpholin-4-yl-benzothiazole-2-carboxylic acid cyclopentylamide] | 174 to 175
COc1ccc(N2CCOCC2)c2sc(C(=O)NCCc3cccc(NC(C)=O)c3)nc12 [Example 50, 4-Methoxy-7-morpholin-4-yl-benzothiazole-2-carboxylic acid [2-(3-acetylamino-phenyl)-ethyl]-amide] | 165 to 166
COc1ccc(N2CCOCC2)c2sc(C(=O)NC[C@@H]3CCCC[C@H]3O)nc12 (stereo in doubt) [Example 43, 4-Methoxy-7-morpholin-4-yl-benzothiazole-2-carboxylic acid (2-hydroxy-cyclohexylmethyl)-amide] | 133 to 135
COc1ccc(N2CCOCC2)c2sc(C(=O)NCCNC(=O)c3ccc(Cl)cc3)nc12 [Example 28, 4-Methoxy-7-morpholin-4-yl-benzothiazole-2-carboxylic acid [2-(4-chloro-benzoylamino)-ethyl]-amide] | 237 to 240
COc1ccc(N2CCOCC2)c2sc(C(=O)NCc3ccc(Cl)cc3)nc12 [Example 7, 4-Methoxy-7-morpholin-4-yl-benzothiazole-2-carboxylic acid 4-chloro-benzylamide] | 175 to 176
COc1ccc(N2CCOCC2)c2sc(C(=O)NCCc3ccccc3C)nc12 [Example 74, 4-Methoxy-7-morpholin-4-yl-benzothiazole-2-carboxylic acid (2-o-tolyl-ethyl)-amide] | 129 to 131
COc1ccc(N2CCOCC2)c2sc(C(=O)NCC(=O)c3sc4ccccc4c3C)nc12 [Example 76, 4-Methoxy-7-morpholin-4-yl-benzothiazole-2-carboxylic acid [2-(3-methyl-benzo[b]thiophen-2-yl)-2-oxo-ethyl]-amide] | 185 to 187
COc1ccc(N2CCOCC2)c2sc(C(=O)NCC3CC3)nc12 [Example 24, 4-Methoxy-7-morpholin-4-yl-benzothiazole-2-carboxylic acid cyclopropylmethyl-amide] | 152 to 153
COc1ccc(N2CCOCC2)c2sc(C(=O)NC3CCCCC3)nc12 [Example 5, 4-Methoxy-7-morpholin-4-yl-benzothiazole-2-carboxylic acid cyclohexylamide] | 146 to 147
COc1ccc(N2CCOCC2)c2sc(C(=O)NNC(=O)c3ccccc3)nc12 [Example 46, 4-Methoxy-7-morpholin-4-yl-benzothiazole-2-carboxylic acid N′-benzoyl-hydrazide] | > 260
COc1cc(OC)cc(C(=O)NNC(=O)c2nc3c(OC)ccc(N4CCOCC4)c3s2)c1 [Example 56, 3,5-Dimethoxy-benzoic acid N′-(4-methoxy-7-morpholin-4-yl-benzothiazole-2-carbonyl)-hydrazide] | 146 to 148
COc1ccc(N2CCOCC2)c2sc(C(=O)NCC3(c4ccccc4)CCOCC3)nc12 [Example 30, 4-Methoxy-7-morpholin-4-yl-benzothiazole-2-carboxylic acid (4-phenyl-tetrahydro-pyran-4-ylmethyl)-amide] | 144 to 148
COc1cccc(NC(=O)c2nc3c(OC)ccc(N4CCOCC4)c3s2)c1 [Example 11, 4-Methoxy-7-morpholin-4-yl-benzothiazole-2-carboxylic acid (3-methoxy-phenyl)-amide] | 160
COc1ccc(N2CCOCC2)c2sc(C(=O)NNC(=O)c3ccncc3)nc12 [Example 45, Isonicotinic acid N′-(4-methoxy-7-morpholin-4-yl-benzothiazole-2-carbonyl)-hydrazide] | 171 to 174
COc1ccc(N2CCOCC2)c2sc(C(=O)NCCCCN3C(=O)c4ccccc4C3=O)nc12 [Example 33, 4-Methoxy-7-morpholin-4-yl-benzothiazole-2-carboxylic acid [4-(1,3-dioxo-1,3-dihydro-isoindol-2-yl)-butyl]-amide] | 114 to 118
COc1ccc(N2CCOCC2)c2sc(C(=O)NCCN3Cc4ccccc4C3=O)nc12 [Example 29, 4-Methoxy-7-morpholin-4-yl benzothiazole-2-carboxylic acid [2-(1-oxo-1,3-dihydro-isoindol-2-yl)-ethyl]-amide] | 199 to 205
COc1ccc(N2CCOCC2)c2sc(C(=O)NCc3ccc(C)o3)nc12 [Example 70, 4-Methoxy-7-morpholin-4-yl-benzothiazole-2-carboxylic acid (5-methyl-furan-2-ylmethyl)-amide] | 173 to 174
COc1ccccc1NC(=O)c1nc2c(OC)ccc(N3CCOCC3)c2s1 [Example 12, 4-Methoxy-7-morpholin-4-yl-benzothiazole-2-carboxylic acid (2-methoxy-phenyl)-amide] | 191
COc1ccc(N2CCOCC2)c2sc(C(=O)NCCc3ccncc3)nc12 [Example 48, 4-Methoxy-7-morpholin-4-yl-benzothiazole-2-carboxylic acid (2-pyridin-4-yl-ethyl)-amide] | 185 to 188
COc1ccc(N2CCOCC2)c2sc(C(=O)NCc3ccccc3F)nc12 [Example 21, 4-Methoxy-7-morpholin-4-yl-benzothiazole-2-carboxylic acid 2-fluoro-benzylamide] | 133 to 134

Structure (SMILES) | melting point [°C]
COc1ccc(N2CCOCC2)c2sc(C(=O)NCc3ccncc3)nc12 [Example 31, 4-Methoxy-7-morpholin-4-yl-benzothiazole-2-carboxylic acid (pyridin-4-ylmethyl)-amide] | 207 to 209
COc1ccc(N2CCOCC2)c2sc(C(=O)NCc3ccccc3)nc12 [Example 3, 4-Methoxy-7-morpholin-4-yl-benzothiazole-2-carboxylic Acid Benzylamide] | 156 to 158
COc1ccc(NC(=O)c2nc3c(OC)ccc(N4CCOCC4)c3s2)cc1 [Example 10, 4-Methoxy-7-morpholin-4-yl-benzothiazole-2-carboxylic acid (4-methoxy-phenyl)-amide] | 148
COc1ccc(N2CCOCC2)c2sc(C(=O)NCCSc3nnc(N)s3)nc12 [Example 83, 4-Methoxy-7-morpholin-4-yl-benzothiazole-2-carboxylic acid [2-(5-amino-[1,3,4]thiadiazol-2-ylsulfanyl)-ethyl]-amide] | 237 to 239
COc1ccc(N2CCOCC2)c2sc(C(=O)Nc3ccccn3)nc12 [Example 19, 4-Methoxy-7-morpholin-4-yl-benzothiazole-2-carboxylic acid pyridin-2-ylamide] | 177 to 181
COc1ccc(N2CCOCC2)c2sc(C(=O)NCCCc3ccccc3)nc12 [Example 40, 4-Methoxy-7-morpholin-4-yl-benzothiazole-2-carboxylic acid (3-phenyl-propyl)-amide] | 147
COc1ccc(N2CCOCC2)c2sc(C(=O)NC(C)c3csc(C)n3)nc12 (stereo not drawn) [Example 80, 4-Methoxy-7-morpholin-4-yl-benzothiazole-2-carboxylic acid [1-(2-methyl-thiazol-4-yl)-ethyl]-amide] | 174 to 175
COc1ccc(N2CCOCC2)c2sc(C(=O)NC(C)Cc3cc4ccccc4o3)nc12 (stereo not drawn) [Example 84, 4-Methoxy-7-morpholin-4-yl-benzothiazole-2-carboxylic acid (2-benzofuran-2-yl-1-methyl-ethyl)-amide] | 144 to 146
COc1ccc(N2CCOCC2)c2sc(C(=O)NCc3cccs3)nc12 [Example 23, 4-Methoxy-7-morpholin-4-yl-benzothiazole-2-carboxylic acid (thiophen-2-ylmethyl)-amide] | 174 to 175
COc1ccc(N2CCOCC2)c2sc(C(=O)NCc3cccnc3)nc12 [Example 18, 4-Methoxy-7-morpholin-4-yl-benzothiazole-2-carboxylic acid (pyridin-3-ylmethyl)-amide] | 181 to 184
COc1ccc(N2CCOCC2)c2sc(C(=O)Nc3ccccc3)nc12 [Example 4, 4-Methoxy-7-morpholin-4-yl-benzothiazole-2-carboxylic acid phenylamide] | 190 to 191
COc1ccc(N2CCOCC2)c2sc(C(=O)NC(c3ccccc3)c3ccccc3)nc12 [Example 47, 4-Methoxy-7-morpholin-4-yl-benzothiazole-2-carboxylic acid benzhydryl-amide] | 166 to 168
COc1ccc(N2CCOCC2)c2sc(C(=O)NCC(=O)c3ccccc3)nc12 [Example 39, 4-Methoxy-7-morpholin-4-yl-benzothiazole-2-carboxylic acid (2-oxo-2-phenyl-ethyl)-amide] | 197 to 200
COc1ccc(N2CCOCC2)c2sc(C(=O)NCC(=O)c3ccsc3)nc12 [Example 79, 4-Methoxy-7-morpholin-4-yl-benzothiazole-2-carboxylic acid (2-oxo-2-thiophen-3-yl-ethyl)-amide] | 229 to 232
COc1ccc(N2CCOCC2)c2sc(C(=O)NCC3Cc4ccccc4C(=O)N3)nc12 (stereo not drawn) [Example 36, 4-Methoxy-7-morpholin-4-yl-benzothiazole-2-carboxylic acid (1-oxo-1,2,3,4-tetrahydro-isoquinolin-3-ylmethyl)-amide] | 152 to 155
COc1ccc(N2CCOCC2)c2sc(C(=O)NCc3csc4ccccc34)nc12 [Example 69, 4-Methoxy-7-morpholin-4-yl-benzothiazole-2-carboxylic acid (benzo[b]thiophen-3-ylmethyl)-amide] | 187 to 189
COc1ccc(CCNC(=O)c2nc3c(OC)ccc(N4CCOCC4)c3s2)cc1 [Example 68, 4-Methoxy-7-morpholin-4-yl-benzothiazole-2-carboxylic acid [2-(4-methoxy-phenyl)-ethyl]-amide] | 69 to 71
COc1ccc(N2CCOCC2)c2sc(C(=O)NNC(=O)c3ccccn3)nc12 [Example 52, Pyridine-2-carboxylic acid N′-(4-methoxy-7-morpholin-4-yl-benzothiazole-2-carbonyl)-hydrazide] | 225 to 226
COc1ccc(N2CCOCC2)c2sc(C(=O)Nc3ccncc3)nc12 [Example 53, 4-Methoxy-7-morpholin-4-yl-benzothiazole-2-carboxylic acid pyridin-4-ylamide] | 206 to 207
